# Where two headings read alike, the source gives them in different places.
# Key:
# Format in all cases: cell-based
# [1] = system: E. coli DH10B(pBAD-tetK), expressing tet(K); assay: MIC against recombinant E. coli expressing tet(K); conditions: for MIC: Escherichia coli
# Excerpt: Constructs were transformed into E. coli DH10B for expression. Recombinant strains were pre-induced under optimized conditions with L-arabinose prior to use as inocula in CLSI standardized MIC assays.
# [2] = system: Klebsiella pneumoniae KP153, tetracycline-resistant, tet(A), MDR, ESBL+; assay: MIC assay, KP153; conditions: Table 9, read-out: MIC Klebsiella pneum KP153 (tet)A
# [3] = system: Enterococcus faecalis EF103, ATCC 29212; assay: MIC assay, EF103
# [4] = system: Acinetobacter baumannii AB110, ATCC 19606; assay: MIC assay, AB110; conditions: ATCC19606, Table 9, read-out: MIC A.baum AB110
# [5] = system: Staphylococcus aureus SA100, ATCC 13709, MSSA, Smith strain; assay: MIC assay, SA100
# [6] = system: Staphylococcus aureus SA161, HA-MRSA, tetracycline-resistant, tet(M); assay: MIC assay, SA161
smiles,measurement,setting,value
CN(C)CC(C)(C)CNc1nc(Cl)c2c(c1O)C(=O)C1=C(O)[C@]3(O)C(=O)C(C(N)=O)=C(O)[C@@H](N(C)C)[C@@H]3C[C@@H]1C2 [Compound 151],MIC,"[1]; read-out: MIC, TetK Induced",1 µg/mL
same,MIC,"[1]; read-out: MIC, Uninduced",1 µg/mL
same,"MIC ratio, TetK induced to uninduced",[1]; ratio of TetK induced to uninduced MIC,1
same,Effect of expression of (tet)K on activity,[1]; result in words,unaffected
same,MIC,[2],8 µg/mL
same,MIC,"[3]; Enterococcus faecalis, ATCC29212, Table 8, read-out: MIC E. faecalis ATCC 29212",0.25 µg/mL
same,MIC E. faecalis ATCC 29212,[3]; Table 9,0.25 µg/mL
same,MIC,[4],2 µg/mL
same,MIC,"[5]; Table 9, read-out: MIC S. aureus ATCC 13709",0.5 µg/mL
same,MIC,"[5]; Table 12, read-out: MIC S. aureus ATCC 13709",0.5 µg/mL
same,MIC,"[6]; Table 8, read-out: MIC S. aureus MRSA, tetM",2 µg/mL
same,MIC,"[6]; Table 9, read-out: MIC MRSA (tet)M SA161",2 µg/mL

# Source: patent publication US8828988B2 (Tetraphase Pharmaceuticals, Inc., priority 2009, dated 2014)
